Assay results reported in patent US12600988B2, “Coronavirus pseudovirus packaging system, packaging method therefor, and application of coronavirus pseudovirus in evaluating disinfection efficacy” (priority 2020, dated 2026).
Entries after “also recorded” stand apart in the source; their conditions may differ.

System: COVID-19 pseudovirus
Design: species or system COVID-19 (SARS-CoV-2)

## O=[O+][O-] [ozone]
  inactivation of COVID-19 pseudovirus: almost completely inactivated; also recorded: complete inactivation
